Structures can show the parent of a compound that is named as a salt.
What follows are compounds tested on human PRP (platelet rich plasma) (assay: Inhibition of platelet aggregation (human PRP, ADP-induced)). Conditions: ADP 5 μM final as inducer, compound and PRP preincubated 2 minutes.
Format: cell-based
Text: The structures of compounds obtained in Examples are as follows. The numbers of the compounds correspond to those of the examples. [drawing 11] Pharmacological test: Inhibition of platelet aggregation
The effect of the compound according to the present invention on inhibiting the platelet aggregation was examined with human PRP (platelet rich plasma).
Nine volumes of a blood sample was taken out of the vein of a normal human with a syringe in which one volume of a 3.8% sodium citrate solution was charged. The blood sample was centrifuged at 170×g at room temperature for 10 minutes. The supernatant thus obtained was isolated as PRP. The residual blood sample that PRP had been taken out was centrifuged at 2,700×g for 15 minutes. The supernatant was then taken as platelet poor plasma (PPP).
Platelet aggregation test was conducted with an aggligometer (PAM-8C; manufactured by MEBANICKS Co., Ltd.). Compounds to be tested were dissolved in a 50% DMSO saline, a 50% methanol saline or physiological saline. The compound and PRP were preincubated for 2 minutes. The ADP (CHRONO-PAR REAGENTS 384 ADP, CHRONO-LOG Corp.) was used as an inducer in the form of a dilution with saline so that the final concentration is 5 μM.
Anti-platelet aggregation activity was obtained as an inhibition rate to platelet aggregation effect of ADP in the absence of a compound to be tested as follows: [formula]
O=C(O)COc1ccc(C(=O)CN2CCN(C3CCNCC3)CC2=O)cc1 [Example 5] showed an IC50 of 32 nM. With CCOC(=O)COc1ccc(C(=O)CN2CCN(C3CCNCC3)CC2=O)cc1OCC(=O)OCC [Example 4] the IC50 was 560 nM. For O=C(O)COc1ccc(C(=O)CN2C(=O)CN(C3CCNCC3)CC2=O)cc1 [Example 8, 4-[[4-(piperidin-4-yl)-2,6-dioxopiperazin-1-yl]acetyl]phenoxyacetic acid hydrochloride], the IC50 was 19 nM. Work on CCCCOC(=O)COc1ccc(C(=O)CN2CC(=O)N(C3CCNCC3)CC2=O)cc1 [Example 11] yielded an IC50 of 1100 nM. CCCCOC(=O)COc1ccc(C(=O)CN2CCN(C3CCNCC3)C(=O)C2=O)cc1 [Example 9, n-butyl 4-[[4-(piperidin-4-yl)-2,3-dioxopiperazin-1-yl]acetyl]phenoxyacetate hydro chloride] showed an IC50 of 1200 nM. For CCOC(=O)COc1ccc(C(=O)CN2CCN(C3CCNCC3)CC2=O)cc1 [Example 14, ethyl 4-[[4-(piperidin-4-yl)-2-oxopiperazin-1-yl]acetyl]phenoxyacetate], the IC50 was 250 nM. For O=C(O)COc1ccc(C(=O)CN2CC(=O)N(C3CCNCC3)CC2=O)cc1 [Example 12, 4-[[4-(piperidin-4-yl)-2,5-dioxopiperazin-1-yl]acetyl]phenoxyacetic acid hydrochloride], the IC50 was 1200 nM. With CCCCOC(=O)COc1ccc(C(=O)CN2C(=O)CN(C3CCNCC3)CC2=O)cc1 [Example 7, n-butyl 4-[[4-(piperidin-4-yl)-2,6-dioxopiperazin-1-yl]acetyl]phenoxyacetate hydro chloride] the IC50 was 240 nM. Compound O=C(O)COc1ccc(C(=O)CN2CCN(C3CCNCC3)CC2)cc1OCC(=O)O [Example 3, [[4-[4-(piperidin-4-yl)piperazin-1-yl]acetyl]-o-phenylene]dioxy]diacetic acid trifluoroacetate] has an IC50 of 150 nM. CCOC(=O)COc1ccc(C(=O)CN2CCN(C3CCN(Cc4oc(=O)oc4C)CC3)CC2=O)cc1 [Example 15, ethyl 4-[[4-[1-(5-methyl-2-oxodioxol-4-yl)methylpiperidin-4-yl]-2-oxopiperazin-1-yl]acetyl]phenoxyacetate] was tested, and the IC50 was 300 nM. With O=C(O)COc1ccc(C(=O)CN2CCN(C3CCNCC3)C(=O)C2=O)cc1 [Example 10, 4-[[4-(piperidin-4-yl)-2,3-dioxopiperazin-1-yl]acetyl]phenoxyacetic acid.hydrochloride] the IC50 was 470 nM. In the case of O=C(O)COC1CCN(C(=O)CN2CCN(C3CCNCC3)CC2=O)CC1 [Example 2, [[1-[4-(piperidin-4-yl)-2-oxopiperazin-1-yl]acetyl]piperidin-4-yl]oxyaceticacid trifluoroacetate], the IC50 is reported as 80 nM. For O=C(O)COC1CCN(C(=O)CN2CCC(N3CCNCC3)CC2)CC1 [Example 6, [[1-[4-(piperazin-4-yl)piperidin-1-yl]acetyl]piperidin-4-yl]oxyacetic acid trifluoroacetate], the IC50 was 2300 nM. In the case of O=C(O)COc1ccc(C(=O)CN2CCN(C3CCNCC3)CC2=O)cc1OCC(=O)O [Example 1, [[4-[[4-(piperidin-4-yl)-2-oxopiperazin-1-yl]acetyl]-o-phenylene]dioxy]diacetic acid trifluoroacetate], the IC50 is reported as 55 nM. CCCCOC(=O)COc1ccc(C(=O)CN2CCN(C3CCNCC3)CC2=O)cc1 [Example 13, n-butyl 4-[[4-(piperidin-4-yl)-2-oxopiperazin-1-yl]acetyl]phenoxyacetate dihydrochloride] gave an IC50 of 49 nM. O=C(O)CCc1ccc(C(=O)CN2CCN(C3CCNCC3)CC2=O)cc1 [Example 16, 3-[4-[[4-(piperidin-4-yl)-2-oxopiperazin-1-yl]acetyl]phenyl]propionic acid trifluoroacetate] was tested, and the IC50 was 420 nM.

From patent publication US5814636A, “Compounds with platelet aggregation inhibitor activity” (Meiji Seika Kabushiki Kaisha, priority 1994, dated 1998)
